Experimental findings from ChEMBL document CHEMBL1201862, “PubChem BioAssay data set” (2004) are described below.

Some test systems named below: NCI/ADR-RES; SF-268; HOP-62; HT-29; MDA-N; CAKI-1; PC-3; LOX IMVI; Hs-578T; SNB-75; BT-549; COLO 205; SN12C; Malme-3M; KM12; A549; UACC-257; A498; HL-60.
Common to all, as to assay: inhibition of tumour cell growth, NCI panel, 48 h

SMILES strings stand for the structures.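 Five concentrations, 48 hours, 96-well plates. GI50 marks 50% less growth.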 Active and inactive are the calls of the source. Rule as the data show it: active = GI50 up to about 1.1 µM and inactive = higher. Bounds are passed on as bounds.

Consider `COc1ccc(/C=C2\N=C(SC)NC2=O)cc1`, for which the GI50 with NCI/ADR-RES is > 100 µM (inactive); in the experiment with SF-268 it was 58.6 µM (inactive); in the experiment on HOP-62, > 100 µM (inactive); in the experiment with HT-29, > 100 µM (inactive); in the experiment on MDA-N, 83.6 µM (inactive); in the experiment on CAKI-1, 56 µM (inactive). Further, the GI50 is 67.1 µM (inactive) with PC-3; > 100 µM (inactive) with LOX IMVI; 64.6 µM (inactive) in the experiment on Hs-578T; 27.2 µM (inactive) in the experiment with SNB-75; 42.8 µM (inactive) in the experiment with BT-549; 98.6 µM (inactive) in the experiment on COLO 205. Also, the GI50 with SN12C was > 100 µM (inactive); in the experiment on Malme-3M, > 100 µM (inactive); with KM12, 54.6 µM (inactive); with A549, > 100 µM (inactive).
`Cc1cc([N+](=O)[O-])c(C)c(Br)c1C`: the GI50 in the experiment with NCI/ADR-RES, in the experiment with UACC-257, in the experiment on SF-268, with HOP-62, in the experiment with HT-29 and in the experiment with MDA-N was > 100 µM (inactive) each time. Moreover, the GI50 with CAKI-1 is > 100 µM (inactive); with PC-3, > 100 µM (inactive); with A498, > 100 µM (inactive); in the experiment with Hs-578T, 42.8 µM (inactive); with SNB-75, 25.2 µM (inactive); with BT-549, > 100 µM (inactive). Further, the GI50 in the experiment with COLO 205, in the experiment on SN12C, in the experiment on Malme-3M, in the experiment with KM12 and in the experiment with A549 was > 100 µM (inactive) throughout.
For `N#CC1=C2Sc3ccccc3N2[C@H](c2ccccc2)[C@H]2COC(=O)[C@@H]12`, the GI50 was > 100 µM (inactive) with NCI/ADR-RES; > 100 µM (inactive) in the experiment on UACC-257; 17.1 µM (inactive) in the experiment with SF-268; > 100 µM (inactive) in the experiment on HOP-62; > 100 µM (inactive) in the experiment with MDA-N; 17.5 µM (inactive) in the experiment with CAKI-1. Further, the GI50 with PC-3 was > 100 µM (inactive); in the experiment with LOX IMVI, 26.3 µM (inactive); in the experiment with A498 it was 54.8 µM (inactive); in the experiment with Hs-578T, > 100 µM (inactive); with SNB-75 it was 21.6 µM (inactive); with BT-549, 27.9 µM (inactive). Further, the GI50 was > 100 µM (inactive) in the experiment with COLO 205, 16.7 µM (inactive) in the experiment on Malme-3M, 63.2 µM (inactive) in the experiment on KM12 and > 100 µM (inactive) in the experiment with A549.
For `COc1cc(C2SCC(=O)N2c2ccc(Oc3ccc(Cl)cc3)c(Cl)c2)cc(OC)c1OC` (configuration not stated), the GI50 with NCI/ADR-RES was 16.6 µM (inactive); with UACC-257, 18.1 µM (inactive); in the experiment with SF-268, 17.2 µM (inactive); with HOP-62, 20.4 µM (inactive); in the experiment with HT-29 it was 16.3 µM (inactive); in the experiment with MDA-N it was 20 µM (inactive). In addition, the GI50 with CAKI-1 was 16.9 µM (inactive); in the experiment on PC-3, 15.4 µM (inactive); in the experiment on LOX IMVI it was 17.9 µM (inactive); in the experiment on Hs-578T, 22.2 µM (inactive); in the experiment on SNB-75, 17.2 µM (inactive); in the experiment with BT-549 it was 16.5 µM (inactive). Moreover, the GI50 was 19.7 µM (inactive) in the experiment on COLO 205; 27.3 µM (inactive) in the experiment with SN12C; 19.8 µM (inactive) with Malme-3M; 19.8 µM (inactive) with KM12; 21.9 µM (inactive) with A549.
Take `CCCCCCCC(CC(=O)NC(CO)C(=O)NC(CO)CC(C)C)OC(=O)CC(CCCCCCC)OC(=O)CC(CCCCCCC)OC1OC(C)C(O)C(OC2OC(C)C(O)C(OC(C)=O)C2O)C1O` (configuration not stated): the GI50 is 5.77 µM (inactive) with UACC-257; 5.69 µM (inactive) with HL-60; 12 µM (inactive) with SF-268; 12.2 µM (inactive) in the experiment on HOP-62; 7.8 µM (inactive) with HT-29; 5.41 µM (inactive) in the experiment with MDA-N. Moreover, the GI50 in the experiment with CAKI-1 was 15.7 µM (inactive); in the experiment with PC-3, 7.6 µM (inactive); with A498, 13.2 µM (inactive); with Hs-578T it was 4.1 µM (inactive); in the experiment on SNB-75, 5.56 µM (inactive); with BT-549, 6.47 µM (inactive). Also, the GI50 is 5.86 µM (inactive) in the experiment with COLO 205; 7.05 µM (inactive) with SN12C; 16 µM (inactive) with Malme-3M; 8.99 µM (inactive) with KM12; 12.5 µM (inactive) with A549.
As for `CCOC(=O)Nn1cnnc1Cc1ccccc1`, the GI50 with NCI/ADR-RES, in the experiment with UACC-257, with SF-268, in the experiment with HOP-62, in the experiment on HT-29 and in the experiment on MDA-N was > 100 µM (inactive) throughout. For the same molecule, the GI50 with CAKI-1 was > 100 µM (inactive); in the experiment on PC-3, > 100 µM (inactive); with LOX IMVI it was > 100 µM (inactive); with A498 it was > 100 µM (inactive); in the experiment with Hs-578T it was 20 µM (inactive); in the experiment on BT-549, > 100 µM (inactive). The GI50 in the experiment with COLO 205, with SN12C, in the experiment with Malme-3M, with KM12 and in the experiment on A549 was > 100 µM (inactive) in each case.
As to `CC(/C=N\NC(=S)N(C)C)=N/NC(=S)N(C)C`, the GI50 in the experiment on NCI/ADR-RES was 0.202 µM (active); in the experiment on UACC-257 it was 2.61 µM (inactive); with SF-268, 0.251 µM (active); in the experiment on HOP-62 it was 0.327 µM (active); in the experiment on HT-29, 0.0995 µM (active); in the experiment on MDA-N, 8.93 µM (inactive). Further, the GI50 was 0.815 µM (active) in the experiment on CAKI-1; 0.577 µM (active) with PC-3; 0.273 µM (active) in the experiment on LOX IMVI; 2.88 µM (inactive) in the experiment on A498; 1.65 µM (inactive) with Hs-578T; 0.557 µM (active) with SNB-75. Moreover, the GI50 in the experiment on BT-549 is 1.93 µM (inactive); in the experiment with COLO 205, 0.497 µM (active); in the experiment with SN12C it was 0.951 µM (active); with Malme-3M it was 0.995 µM (active); with KM12, 1.78 µM (inactive); in the experiment on A549, 0.142 µM (active).
With `CC(=O)N1N=C(c2ccc3ccccc3c2O)CC1C(=O)c1ccco1` (configuration not stated), the GI50 in the experiment with NCI/ADR-RES was 18.1 µM (inactive); in the experiment with UACC-257 it was 32.1 µM (inactive); in the experiment on SF-268, 14.4 µM (inactive); with HOP-62, 30.6 µM (inactive); with HT-29, 22.8 µM (inactive); in the experiment with MDA-N, 20.6 µM (inactive). Besides, the GI50 was 44.1 µM (inactive) in the experiment on CAKI-1; 22.5 µM (inactive) in the experiment with PC-3; 29.7 µM (inactive) with A498; 21.8 µM (inactive) with Hs-578T; 14.3 µM (inactive) in the experiment on SNB-75; 30.3 µM (inactive) with BT-549. Further, the GI50 with COLO 205 is 25.8 µM (inactive); in the experiment with SN12C, 41.2 µM (inactive); in the experiment with Malme-3M it was 23.2 µM (inactive); with KM12, 10.8 µM (inactive); in the experiment with A549, 27.9 µM (inactive).
As for `O=c1[nH]nc(Cc2ccccc2)n1/N=C/c1ccccc1O`, the GI50 with NCI/ADR-RES was > 100 µM (inactive); in the experiment with UACC-257, > 100 µM (inactive); in the experiment on HL-60, > 100 µM (inactive); with SF-268 it was 50.1 µM (inactive); in the experiment on HOP-62, 25.9 µM (inactive); in the experiment on HT-29, > 100 µM (inactive). Further, the GI50 in the experiment on MDA-N was > 100 µM (inactive); with CAKI-1, > 100 µM (inactive); in the experiment on LOX IMVI, > 100 µM (inactive); in the experiment with A498, > 100 µM (inactive); in the experiment with Hs-578T, 51.9 µM (inactive); with BT-549, > 100 µM (inactive). The GI50 in the experiment with COLO 205, with SN12C, in the experiment on Malme-3M, in the experiment on KM12 and in the experiment on A549 was > 100 µM (inactive) throughout.
Regarding `COc1cc2cc(C(=O)N3CC(CCl)c4c3cc([N+](=O)[O-])c3ccccc43)[nH]c2c(OC)c1OC` (configuration not stated), the GI50 was 9.06 µM (inactive) in the experiment with NCI/ADR-RES; > 100 µM (inactive) with UACC-257; 26.8 µM (inactive) in the experiment on SF-268; 8.91 µM (inactive) with HOP-62; 40.6 µM (inactive) in the experiment with HT-29; > 100 µM (inactive) in the experiment on MDA-N. Moreover, the GI50 with CAKI-1 is 39.4 µM (inactive); in the experiment with PC-3 it was 10.9 µM (inactive); with LOX IMVI it was 49.9 µM (inactive); with A498 it was > 40.6 µM (inactive); in the experiment with Hs-578T, > 45.1 µM (inactive); with SNB-75, 31.8 µM (inactive). The GI50 in the experiment with BT-549 was > 100 µM (inactive); with COLO 205, > 76 µM (inactive); in the experiment on SN12C, 79.6 µM (inactive); with Malme-3M, 68.1 µM (inactive); with KM12 it was > 62.8 µM (inactive); in the experiment with A549, 1.8 µM (inactive).
As for `Cc1ccc2c(c1)NC(=O)CC(c1ccccc1)=N2`, the GI50 with NCI/ADR-RES is 77.4 µM (inactive); with UACC-257, > 100 µM (inactive); with SF-268 it was > 100 µM (inactive); in the experiment with HOP-62, > 100 µM (inactive); in the experiment on HT-29, > 100 µM (inactive); in the experiment with MDA-N it was 23.7 µM (inactive). Further, the GI50 in the experiment on CAKI-1 was > 100 µM (inactive); with PC-3, 97.1 µM (inactive); in the experiment with LOX IMVI, > 100 µM (inactive); with A498, > 100 µM (inactive); in the experiment on Hs-578T, > 100 µM (inactive); in the experiment on SNB-75, 76.7 µM (inactive). The GI50 was > 100 µM (inactive) with BT-549; > 100 µM (inactive) in the experiment with SN12C; > 100 µM (inactive) with Malme-3M; 43.9 µM (inactive) with KM12; 81.7 µM (inactive) in the experiment on A549.
